From patent US6362188B1, “Farnesyl protein transferase inhibitors” (Schering Corporation, priority 1998, dated 2002)

Tested on: Human tumor cells
Test: Soft Agar Assay (anchorage-independent growth)
Type: cell-based
Details: colony outgrowth in soft agar, stated as a range for the group
Experimental: Anchorage-independent growth is a characteristic of tumorigenic cell lines. Human tumor cells can be suspended in growth medium containing 0.3% agarose and an indicated concentration of a farnesyl transferase inhibitor. The solution can be overlayed onto growth medium solidified with 0.6% agarose containing the same concentration of farnesyl transferase inhibitor as the top layer. After the top layer is solidified, plates can be incubated for 10-16 days at 37° C. under 5% CO2 to allow colony outgrowth. After incubation, the colonies can be stained by overlaying the agar with a solution of MTT (3-[4,5-dimethyl-thiazol-2-yl]-2,5-diphenyltetrazolium bromide, Thiazolyl blue) (1 mg/mL in PBS). Colonies can be counted and the IC50's can be determined.

SMILES	IC50
Cc1cn(CC2CN(C(=O)C3CN(C4c5ccc(Cl)cc5CCc5cccnc54)CCN3C(=O)OC3CCCCC3)CCS2(=O)=O)cn1 (single isomer, unassigned) [47(L)]	0.05 to 30 nM
Cc1nc(C)n(CC2CCCN(C(=O)C3CN(C4c5ccc(Cl)cc5CCc5cccnc54)CCN3C(=O)OC3CCCCC3)C2)c1C (single isomer, unassigned) [47(P)]	0.05 to 30 nM
Cc1cn(CCC2CCCN2C(=O)C2CN(C3c4ccc(Cl)cc4CCc4cccnc43)CCN2C(=O)OC2CCCCC2)cn1 (single isomer, unassigned) [47(S)]	0.05 to 30 nM
CC(C)(C)OC(=O)N1CCN(C2c3ccc(Cl)cc3CCc3cc(Br)cnc32)CC1C(=O)N1CCCCC1CCCn1ccnc1 (single isomer, unassigned) [Example 145]	0.5 to 30 nM
Cc1[nH]cnc1CC1CN(C(=O)C2CN(C3c4ccc(Cl)cc4CCc4cc(Br)cnc43)CCN2C(=O)OC(C)(C)C)CCS1(=O)=O (single isomer, unassigned) [Example 156]	0.05 to 30 nM
Cc1[nH]cnc1CC1CN(C(=O)C2CN(C3c4ccc(Cl)cc4CCc4cc(Br)cnc43)CCN2C(=O)OC2CCCCC2)CCS1(=O)=O (single isomer, unassigned) [Example 212]	0.05 to 30 nM
Cc1cn(CC2CCCN(C(=O)C3CN(C4c5ncccc5CCc5cccc(Cl)c54)CCN3C(=O)OC3CCCCC3)C2)cn1 (single isomer, unassigned) [Example 391]	0.05 to 30 nM
Cc1nccn1CC1CCCN(C(=O)C2CN(C3c4ncccc4CCc4cccc(Cl)c43)CCN2C(=O)OC(C)(C)C)C1 (single isomer, unassigned) [Example 396]	0.05 to 30 nM
Cc1cn(CC2CCCN(C(=O)C3CN(C4c5ncccc5CCc5cc(Cl)cc(Br)c54)CCN3C(=O)OC(C)(C)C)C2)cn1 (single isomer, unassigned) [Example 407]	0.05 to 30 nM
Cc1cn(CC2CCCCN(C(=O)C3CN(C4c5ccc(Cl)cc5CCc5cccnc54)CCN3C(=O)OC3CCCCC3)C2)cn1 (single isomer, unassigned) [Example 409]	0.05 to 30 nM
Cc1cn(CC2(O)CCCN(C(=O)[C@H]3CN([C@H]4c5ccc(Cl)cc5CCc5cccnc54)CCN3C(=O)OCc3ccccc3)C2)cn1 (single isomer, unassigned) [Example 422]	0.05 to 30 nM
Cc1cn(C[C@]2(O)CCCN(C(=O)[C@H]3CN([C@H]4c5ccc(Cl)cc5CCc5cccnc54)CCN3C(=O)OC3CCCCC3)C2)cn1 (stereo in doubt) [Example 419]	0.05 to 30 nM
Cc1nccn1CC1CN(C(=O)C2CN(C3c4ccc(Cl)cc4CCc4cccnc43)CCN2C(=O)OC(C)(C)C)CCS1(=O)=O (centres unmarked) [35(E)]	0.05 to 30 nM
CC(C)(C)OC(=O)N1CCN(C2c3ccc(Cl)cc3CCc3cc(Br)cnc32)C[C@@H]1C(=O)N1CCC[C@H](Cn2ccnc2)C1 (some centres unmarked) [Example 1]	0.5 to 30 nM
CC(C)(C)OC(=O)N1CCN(C2c3ccc(Cl)cc3CCc3cc(Br)cnc32)CC1C(=O)N1CC[S+]([O-])C(Cn2ccnc2)C1 (centres unmarked) [Example 7]	0.5 to 30 nM
Cc1nccn1C[C@@H]1CCCN(C(=O)[C@H]2CN([C@H]3c4ccc(Cl)cc4CCc4cccnc43)CCN2C(=O)OC(C)(C)C)C1 [Example 30]	0.5 to 30 nM
Cc1cn(C[C@@H]2CCCN(C(=O)[C@H]3CN([C@H]4c5ccc(Cl)cc5CCc5cccnc54)CCN3C(=O)OC(C)(C)C)C2)cn1 [Example 32]	0.5 to 30 nM
CCc1nccn1CC1CCCN(C(=O)C2CN(C3c4ccc(Cl)cc4CCc4cccnc43)CCN2C(=O)OC(C)(C)C)C1 (centres unmarked) [Example 34]	0.5 to 30 nM
Cc1nccn1CC1CCCN(C(=O)C2CN(C3c4ccc(Cl)cc4CCc4cccnc43)CCN2C(=O)NC(C)(C)C)C1 (centres unmarked) [Example 49]	0.5 to 30 nM
Cc1cn(CC2CCCN(C(=O)C3CN(C4c5ccc(Cl)cc5CCc5cccnc54)CCN3C(=O)NC(C)(C)C)C2)cn1 (centres unmarked) [Example 50]	0.5 to 30 nM
CC(C)(C)OC(=O)N1CCN(C2c3ccc(Cl)cc3CCc3cc(Br)cnc32)C[C@@H]1C(=O)N1CCCCC1CCn1ccnc1 (stereo partly drawn) [Example 74, 1,1-dimethylethyl-4-(3-bromo-8-chloro-6,11-dihydro-5H-benzo[5,6]cyclohepta[1,2-b]pyridin-11-yl)-2(R)-[[2-[2-(1H-imidazol-1-yl)ethyl]-1-piperidinyl]carbonyl]-1-piperazinecarboxylate]	0.5 to 30 nM
CC(C)(C)OC(=O)N1CCN([C@H]2c3ccc(Cl)cc3CCc3cc(Br)cnc32)C[C@@H]1C(=O)N1CCCCC1CCn1ccnc1 (stereo partly drawn) [Example 138, 1,1-dimethylethyl 4-(3-bromo-8-chloro-6,11-dihydro-5H-benzo[5,6]cyclohepta[1,2-b]pyridin-11(S)-yl)-2(R)-[[2-[2-(1H-imidazol-1-yl)ethyl]-1-piperidinyl]carbonyl]-1-piperazinecarboxylate]	0.5 to 30 nM
Cc1cn(CC2CN(C(=O)C3CN(C4c5ccc(Cl)cc5CCc5cc(Br)cnc54)CCN3C(=O)OC(C)(C)C)CCS2(=O)=O)cn1 (centres unmarked) [Example 150]	0.05 to 30 nM
Cc1nccn1CC1CN(C(=O)C2CN(C3c4ccc(Cl)cc4CCc4cc(Br)cnc43)CCN2C(=O)OC(C)(C)C)CCS1(=O)=O (centres unmarked) [Example 151]	0.05 to 30 nM
Cc1cncn1CC1CN(C(=O)C2CN(C3c4ccc(Cl)cc4CCc4cc(Br)cnc43)CCN2C(=O)OC(C)(C)C)CCS1(=O)=O (centres unmarked) [Example 152]	0.05 to 30 nM

SMILES	IC50
Cc1cncn1C[C@H]1CN(C(=O)[C@H]2CN([C@H]3c4ccc(Cl)cc4CCc4cc(Br)cnc43)CCN2C(=O)OC(C)(C)C)CCS1(=O)=O [Example 154]	0.05 to 30 nM
CC(C)(C)OC(=O)N1CCN(C2c3ccc(Cl)cc3CCc3cc(Br)cnc32)CC1C(=O)N1CCS(=O)(=O)C(Cc2c[nH]cn2)C1 (centres unmarked) [Example 155]	0.05 to 30 nM
Cc1nc(C)n(CC2CCCN(C(=O)C3CN(C4c5ccc(Cl)cc5CCc5cc(Br)cnc54)CCN3C(=O)OC(C)(C)C)C2)c1C (centres unmarked) [Example 158]	0.05 to 30 nM
Cc1c(CO)ncn1CC1CCCN(C(=O)C2CN(C3c4ccc(Cl)cc4CCc4cc(Br)cnc43)CCN2C(=O)OC(C)(C)C)C1 (centres unmarked) [Example 160]	0.05 to 30 nM
Cc1cn(C[C@@H]2CCCN(C(=O)[C@H]3CN([C@@H]4c5ccc(Cl)cc5CCc5cc(Br)cnc54)CCN3C(=O)OC(C)C)C2)cn1 [Example 169]	0.05 to 30 nM
Cc1cn(C[C@@H]2CCCN(C(=O)[C@H]3CN([C@H]4c5ccc(Cl)cc5CCc5cc(Br)cnc54)CCN3C(=O)OC(C)C)C2)cn1 [Example 170]	0.05 to 30 nM
Cc1cn(C[C@@H]2CCCN(C(=O)[C@H]3CN([C@@H]4c5ccc(Cl)cc5CCc5cc(Br)cnc54)CCN3C(=O)OC3CCCCC3)C2)cn1 [Example 171]	0.05 to 30 nM
Cc1cn(C[C@@H]2CCCN(C(=O)[C@H]3CN([C@H]4c5ccc(Cl)cc5CCc5cc(Br)cnc54)CCN3C(=O)OC3CCCCC3)C2)cn1 [Example 172]	0.05 to 30 nM
Cc1cn(C[C@@H]2CCCN(C(=O)[C@H]3CN([C@@H]4c5ccc(Cl)cc5CCc5cc(Br)cnc54)CCN3C(=O)OCC(C)(C)C)C2)cn1 [Example 173]	0.05 to 30 nM
Cc1cn(C[C@@H]2CCCN(C(=O)[C@H]3CN([C@H]4c5ccc(Cl)cc5CCc5cc(Br)cnc54)CCN3C(=O)OCC(C)(C)C)C2)cn1 [Example 174]	0.05 to 30 nM
Cc1cn(CC2CCCN(C(=O)C3CN(C4c5ccc(Cl)cc5CCc5cc(Br)cnc54)CCN3C(=O)NC(C)(C)C)C2)cn1 (centres unmarked) [Example 177]	0.05 to 30 nM
Cc1cn(C[C@@H]2CCCN(C(=O)[C@H]3CN([C@@H]4c5ccc(Cl)cc5CCc5cc(Br)cnc54)CCN3C(=O)C(C)(C)C)C2)cn1 [Example 179]	0.05 to 30 nM
Cc1cn(CC2CCCN(C(=O)C3CN(C4c5ccc(Cl)cc5CCc5cc(Br)cnc54)CCN3C(=O)C(C)(C)C)C2)cn1 (centres unmarked) [Example 180]	0.05 to 30 nM
Cc1cn(C[C@H]2CCCN(C(=O)[C@H]3CN([C@@H]4c5ccc(Cl)cc5CCc5cc(Br)cnc54)CCN3C(=O)OC(C)C)C2)cn1 [Example 183]	0.05 to 30 nM
Cc1cn(C[C@H]2CCCN(C(=O)[C@H]3CN([C@H]4c5ccc(Cl)cc5CCc5cc(Br)cnc54)CCN3C(=O)OC(C)C)C2)cn1 [Example 184]	0.05 to 30 nM
Cc1cn(C[C@H]2CCCN(C(=O)[C@H]3CN([C@@H]4c5ccc(Cl)cc5CCc5cc(Br)cnc54)CCN3C(=O)OC3CCCCC3)C2)cn1 [Example 185]	0.05 to 30 nM
Cc1cn(C[C@H]2CCCN(C(=O)[C@H]3CN([C@H]4c5ccc(Cl)cc5CCc5cc(Br)cnc54)CCN3C(=O)OC3CCCCC3)C2)cn1 [Example 186]	0.05 to 30 nM
Cc1cn(C[C@H]2CCCN(C(=O)[C@H]3CN([C@@H]4c5ccc(Cl)cc5CCc5cc(Br)cnc54)CCN3C(=O)OCC(C)(C)C)C2)cn1 [Example 187]	0.05 to 30 nM
Cc1cn(CC2CCCN(C(=O)C3CN(C4c5ccc(Cl)cc5CCc5cc(Br)cnc54)CCN3C(=O)OCC(C)(C)C)C2)cn1 (centres unmarked) [Example 188]	0.05 to 30 nM
Cc1cn(C[C@H]2CCCN(C(=O)[C@H]3CN([C@@H]4c5ccc(Cl)cc5CCc5cc(Br)cnc54)CCN3C(=O)NC(C)(C)C)C2)cn1 [Example 191]	0.05 to 30 nM
Cc1cn(C[C@H]2CCCN(C(=O)[C@H]3CN([C@H]4c5ccc(Cl)cc5CCc5cc(Br)cnc54)CCN3C(=O)NC(C)(C)C)C2)cn1 [Example 192]	0.05 to 30 nM
Cc1cn(C[C@@H]2CCCN(C(=O)[C@H]3CN([C@H]4c5ccc(Cl)cc5CCc5cc(Br)cnc54)CCN3C(=O)C3(C)CC3)C2)cn1 [Example 201]	0.05 to 30 nM
Cc1cn(C[C@@H]2CN(C(=O)[C@H]3CN([C@@H]4c5ccc(Cl)cc5CCc5cc(Br)cnc54)CCN3C(=O)OC3CCCCC3)CCS2(=O)=O)cn1 [Example 209]	0.05 to 30 nM
Cc1cn(C[C@@H]2CN(C(=O)[C@H]3CN([C@H]4c5ccc(Cl)cc5CCc5cc(Br)cnc54)CCN3C(=O)OC3CCCCC3)CCS2(=O)=O)cn1 [Example 210]	0.05 to 30 nM
Cc1cn(C[C@H]2CN(C(=O)[C@H]3CN([C@H]4c5ccc(Cl)cc5CCc5cc(Br)cnc54)CCN3C(=O)OC3CCCCC3)CCS2(=O)=O)cn1 [Example 211]	0.05 to 30 nM
